Data reported in ChEMBL document CHEMBL6120948, “Design, Synthesis, and Biological Evaluation of Lysine-Stapled Peptide Inhibitors of p53-MDM2/MDMX Interactions with Potent Antitumor Activity In Vivo” (J Med Chem, 2024).

What was measured:
[1] = test system: HCT-116; test: Induction of apoptosis in human HCT-116 cells at 25 uM incubated for 48 hrs by Annexin V-FITC/PI staining based flow cytometry relative to control; assay type: functional
[2] = Induction of alpha-helical conformation in phosphate buffer at pH 7 at 100 uM by CD analysis; assay type: physicochemical; conditions: pH 7, 100 µM
[3] = test system: HCT-116; test: Induction of cell cycle arrest in human HCT-116 cells assessed as accumulation at G2 phase at 10 uM incubated for 24 hrs by PI staining based flow cytometry (reference value: 17.5 %); assay type: functional
[4] = test system: HCT-116; test: Induction of cell cycle arrest in human HCT-116 cells assessed as accumulation at S phase at 5 uM incubated for 24 hrs by PI staining based flow cytometry (reference value: 29.4 %); assay type: functional
[5] = test system: HCT-116; test: Induction of cell cycle arrest in human HCT-116 cells assessed as accumulation at G1 phase at 20 uM incubated for 24 hrs by PI staining based flow cytometry (reference value: 50.7 %); assay type: functional
[6] = test system: HCT-116; test: Induction of cell cycle arrest in human HCT-116 cells assessed as accumulation at G2 phase at 5 uM incubated for 24 hrs by PI staining based flow cytometry (reference value: 17.5 %); assay type: functional
[7] = test system: HepG2; test: Antiproliferative activity against human HepG2 cells expressing wild-type p53 incubated for 72 hrs by MTT assay; assay type: functional, cell-based; conditions: HepG2, 72 h
[8] = test system: HeLa; test: Antiproliferative activity against human HeLa cells expressing wild-type p53 incubated for 72 hrs by MTT assay; assay type: functional, cell-based
[9] = test system: MCF7; test: Antiproliferative activity against human MCF7 cells expressing wild-type p53 incubated for 72 hrs by MTT assay; assay type: functional, cell-based; conditions: MCF7, 72 h
[10] = test system: HCT-116; test: Induction of cell cycle arrest in human HCT-116 cells assessed as accumulation at G1 phase at 5 uM incubated for 24 hrs by PI staining based flow cytometry (reference value: 50.7 %); assay type: functional
[11] = Antiproliferative activity against human SJSA-1 cells expressing wild-type p53 incubated for 72 hrs by MTT assay; assay type: functional, cell-based; conditions: SJSA-1, 72 h
[12] = test system: HCT-116; test: Induction of apoptosis in human HCT-116 cells at 100 uM incubated for 48 hrs by Annexin V-FITC/PI staining based flow cytometry relative to control; assay type: functional
[13] = test system: HCT-116; test: Induction of apoptosis in human HCT-116 cells at 50 uM incubated for 48 hrs by Annexin V-FITC/PI staining based flow cytometry relative to control; assay type: functional
[14] = test system: HCT-116; test: Induction of cell cycle arrest in human HCT-116 cells assessed as accumulation at S phase at 10 uM incubated for 24 hrs by PI staining based flow cytometry (reference value: 29.4 %); assay type: functional
[15] = Antiproliferative activity against human U-87 MG cells expressing wild-type p53 incubated for 72 hrs by MTT assay; assay type: functional, cell-based, U-87MG ATCC
[16] = test system: ZR-75-1; test: Antiproliferative activity against human ZR-75-1 cells expressing wild-type p53 incubated for 72 hrs by MTT assay; assay type: functional, cell-based; conditions: ZR-75-1, 72 h
[17] = Antiproliferative activity against HEK293T cells incubated for 72 hrs by MTT assay; assay type: toxicity, cell-based, HEK-293T; conditions: human
[18] = test system: A-375; test: Antiproliferative activity against human A-375 cells expressing wild-type p53 incubated for 72 hrs by MTT assay; assay type: functional, cell-based; conditions: A-375, 72 h
[19] = test system: HCT-116; test: Induction of cell cycle arrest in human HCT-116 cells assessed as accumulation at S phase at 20 uM incubated for 24 hrs by PI staining based flow cytometry (reference value: 29.4 %); assay type: functional
[20] = test system: HCT-116; test: Antiproliferative activity against human HCT-116 cells expressing wild-type p53 incubated for 72 hrs by MTT assay; assay type: functional, cell-based; conditions: HCT-116, 72 h
[21] = Stability of compound in 50 percent human serum assessed as half life measured for 24 hrs by HPLC analysis; assay type: ADME, cell-free; conditions: 50% human serum
[22] = test system: HCT-116; test: Induction of cell cycle arrest in human HCT-116 cells assessed as accumulation at G1 phase at 10 uM incubated for 24 hrs by PI staining based flow cytometry (reference value: 50.7 %); assay type: functional
[23] = test system: A549; test: Antiproliferative activity against human A549 cells expressing wild-type p53 incubated for 72 hrs by MTT assay; assay type: functional, cell-based; conditions: A549, 72 h
[24] = test system: HCT-116; test: Induction of cell cycle arrest in human HCT-116 cells assessed as accumulation at G2 phase at 20 uM incubated for 24 hrs by PI staining based flow cytometry (reference value: 17.5 %); assay type: functional
[25] = Toxicity in BALB/c nude mouse xenografted with human HCT-116 cells assessed as change in weight of heart at 5 to 10 mg/kg, iv treated for 14 days on every 48 hrs; assay type: organism-based; conditions: in vivo, 336 h, dose 5-10 mg/kg, time 14 day
[26] = Toxicity in BALB/c nude mouse xenografted with human HCT-116 cells assessed as change in weight of liver at 5 to 10 mg/kg, iv treated for 14 days on every 48 hrs; assay type: organism-based; conditions: in vivo, 336 h, dose 5-10 mg/kg, time 14 day
[27] = Toxicity in BALB/c nude mouse xenografted with human HCT-116 cells assessed as change in body weight at 5 to 10 mg/kg, iv treated for 14 days on every 48 hrs; assay type: organism-based; conditions: in vivo, 336 h, dose 5-10 mg/kg, time 14 day
[28] = Toxicity in BALB/c nude mouse xenografted with human HCT-116 cells assessed as histopathological change in heart at 5 to 10 mg/kg, iv treated for 14 days on every 48 hrs by H and E staining based analysis; assay type: organism-based; conditions: in vivo, 336 h, dose 5-10 mg/kg, time 14 day
[29] = test system: HCT-116; test: Antitumor activity against human HCT-116 cells xenografted in BALB/c nude mouse at 10 mg/kg, iv treated for 14 days on every 48 hrs relative to control; assay type: functional; conditions: HCT-116, 336 h, time 14 day, read-out: TGI
[30] = test system: HCT-116; test: Induction of cell cycle arrest in human HCT-116 cells assessed as accumulation at G1 phase at 10 uM incubated for 24 hrs by PI staining based flow cytometry (reference value: 48.8 %); assay type: functional
[31] = Toxicity in BALB/c nude mouse xenografted with human HCT-116 cells assessed as histopathological change in liver at 5 to 10 mg/kg, iv treated for 14 days on every 48 hrs by H and E staining based analysis; assay type: organism-based; conditions: in vivo, 336 h, dose 5-10 mg/kg, time 14 day
[32] = test system: HCT-116; test: Induction of cell cycle arrest in human HCT-116 cells assessed as accumulation at G2 phase at 5 uM incubated for 24 hrs by PI staining based flow cytometry (reference value: 17.1 %); assay type: functional
[33] = Toxicity in BALB/c nude mouse xenografted with human HCT-116 cells assessed as histopathological change in lungs at 5 to 10 mg/kg, iv treated for 14 days on every 48 hrs by H and E staining based analysis; assay type: organism-based; conditions: in vivo, 336 h, dose 5-10 mg/kg, time 14 day
[34] = Toxicity in BALB/c nude mouse xenografted with human HCT-116 cells assessed as histopathological change in kidneys at 5 to 10 mg/kg, iv treated for 14 days on every 48 hrs by H and E staining based analysis; assay type: organism-based; conditions: in vivo, 336 h, dose 5-10 mg/kg, time 14 day
[35] = test system: HCT-116; test: Induction of cell cycle arrest in human HCT-116 cells assessed as accumulation at G2 phase at 10 uM incubated for 24 hrs by PI staining based flow cytometry (reference value: 17.1 %); assay type: functional
[36] = test system: HCT-116; test: Induction of cell cycle arrest in human HCT-116 cells assessed as accumulation at S phase at 10 uM incubated for 24 hrs by PI staining based flow cytometry (reference value: 31.8 %); assay type: functional
[37] = test system: HCT-116; test: Induction of cell cycle arrest in human HCT-116 cells assessed as accumulation at S phase at 5 uM incubated for 24 hrs by PI staining based flow cytometry (reference value: 31.8 %); assay type: functional
[38] = test system: HCT-116; test: Induction of cell cycle arrest in human HCT-116 cells assessed as accumulation at G1 phase at 20 uM incubated for 24 hrs by PI staining based flow cytometry (reference value: 48.8 %); assay type: functional
[39] = test system: HCT-116; test: Induction of cell cycle arrest in human HCT-116 cells assessed as accumulation at G2 phase at 20 uM incubated for 24 hrs by PI staining based flow cytometry (reference value: 17.1 %); assay type: functional
[40] = test system: HCT-116; test: Induction of cell cycle arrest in human HCT-116 cells assessed as accumulation at G1 phase at 5 uM incubated for 24 hrs by PI staining based flow cytometry (reference value: 48.8 %); assay type: functional
[41] = Toxicity in BALB/c nude mouse xenografted with human HCT-116 cells assessed as change in weight of lungs at 5 to 10 mg/kg, iv treated for 14 days on every 48 hrs; assay type: organism-based; conditions: in vivo, 336 h, dose 5-10 mg/kg, time 14 day
[42] = test system: HCT-116; test: Antitumor activity against human HCT-116 cells xenografted in BALB/c nude mouse at 5 mg/kg, iv treated for 14 days on every 48 hrs relative to control; assay type: functional; conditions: HCT-116, 336 h, time 14 day, read-out: TGI
[43] = Toxicity in BALB/c nude mouse xenografted with human HCT-116 cells assessed as histopathological change in spleen at 5 to 10 mg/kg, iv treated for 14 days on every 48 hrs by H and E staining based analysis; assay type: organism-based; conditions: in vivo, 336 h, dose 5-10 mg/kg, time 14 day
[44] = test system: HCT-116; test: Induction of cell cycle arrest in human HCT-116 cells assessed as accumulation at S phase at 20 uM incubated for 24 hrs by PI staining based flow cytometry (reference value: 31.8 %); assay type: functional
[45] = Toxicity in BALB/c nude mouse xenografted with human HCT-116 cells assessed as change in weight of kidneys at 5 to 10 mg/kg, iv treated for 14 days on every 48 hrs; assay type: organism-based; conditions: in vivo, 336 h, dose 5-10 mg/kg, time 14 day
[46] = Toxicity in BALB/c nude mouse xenografted with human HCT-116 cells assessed as change in weight of spleen at 5 to 10 mg/kg, iv treated for 14 days on every 48 hrs; assay type: organism-based; conditions: in vivo, 336 h, dose 5-10 mg/kg, time 14 day

CSCC[C@H](NC(=O)[C@H](CC(C)C)NC(=O)[C@H](CCC(N)=O)NC(=O)[C@@H]1CCCCNCc2ccc(cc2)CNCCCC[C@H](NC(=O)[C@H](Cc2ccccc2)NC(=O)[C@@H](NC(=O)[C@H](CC(C)C)NC(C)=O)[C@@H](C)O)C(=O)N[C@@H](CCC(=O)O)C(=O)N[C@@H](Cc2ccc(O)cc2)C(=O)N[C@@H](Cc2c[nH]c3ccccc23)C(=O)N1)C(=O)N[C@@H](CCC(N)=O)C(=O)N[C@@H](C)C(=O)N[C@@H](C)C(N)=O
Activity [1]: 55.66%
Activity [2]: 11%
Activity [3]: 29%
Activity [4]: 40.5%
Activity [5]: 34.1%
Activity [6]: 23.9%
IC50 [7]: > 160 µM
IC50 [8]: 91.8 µM
IC50 [9]: 25.3 µM
Activity [10]: 33.8%
IC50 [11]: > 160 µM
Activity [12]: 70.13%
Activity [13]: 56.51%
Activity [14]: 36.2%
IC50 [15]: 7.2 µM
IC50 [16]: 7.2 µM
IC50 at 72 h [17]: > 160 µM
IC50 [18]: > 160 µM
Activity [19]: 32.3%
IC50 [20]: 14.6 µM
half-life [21]: 3 h
Activity [22]: 33.9%
IC50 [23]: 6.4 µM
Activity [24]: 32.7%

CC(=O)N[C@@H](CC(C)C)C(=O)N[C@H](C(=O)N[C@@H](Cc1ccccc1)C(=O)N[C@H]1CCCCNCc2cccc(c2)CNCCCC[C@@H](C(=O)N[C@@H](CCC(N)=O)C(=O)N[C@@H](CC(C)C)C(=O)N[C@H](C(=O)N[C@@H](CO)C(=O)N[C@@H](C)C(=O)N[C@@H](C)C(N)=O)[C@@H](C)O)NC(=O)[C@H](Cc2c[nH]c3ccccc23)NC(=O)[C@H](Cc2ccc(O)cc2)NC(=O)[C@H](Cc2c[nH]cn2)NC1=O)[C@@H](C)O
Activity [1]: 35.22%
Activity [25]: Non-toxic
Activity [26]: Non-toxic
Activity [27]: Non-toxic
Activity [2]: 11%
Activity [28]: Non-toxic
inhibition in vivo at 10 mg/kg [29]: 30%
Activity [30]: 38.1%
Activity [31]: Non-toxic
Activity [32]: 25.3%
Activity [33]: Non-toxic
Activity [34]: Non-toxic
Activity [35]: 28%
IC50 [7]: > 160 µM
IC50 [8]: 45.9 µM
IC50 [9]: 2.99 µM
Activity [36]: 33%
Activity [37]: 37.7%
Activity [38]: 37.4%
IC50 [11]: > 160 µM
Activity [39]: 31.2%
Activity [12]: 93.14%
Activity [13]: 94.4%
Activity [40]: 35.6%
IC50 [15]: 3.7 µM
IC50 [16]: 2.6 µM
IC50 at 72 h [17]: > 160 µM
Activity [41]: Non-toxic
IC50 [18]: 49.2 µM
inhibition in vivo at 5 mg/kg [42]: 13%
IC50 [20]: 5.8 µM
Activity [43]: Non-toxic
half-life [21]: 12 h
IC50 [23]: 27.4 µM
Activity [44]: 30.5%
Activity [45]: Non-toxic
Activity [46]: Non-toxic
